Results as given in patent US7648977B2, “Pharmaceutical composition having a ruthenium oxalato compound and method of using the same” (The University of Hong Kong, priority 2005, dated 2010).

Assays:
HIV-1(BaL) = conditions: Hut/CCR5 cells, 3 or 7 days, 0.5-50 μM, viral p24 antigen
Procedure: Following infection, the cells were washed to remove residual viral inoculums and cultured in the presence of compounds (400 μL) for 3 or 7 days. Culture supernatants were harvested and viral replication was measured by determination of viral p24 antigen concentration by ELISA (HIV-1 p24 antigen Kit, Beckman Coulter). Compounds were tested in triplicate at 3 concentrations ranging from 0.5-50 μM.

HIV-1(IIIB) = conditions: 0.5-50 μM, viral p24 antigen, FIG. 8
Procedure: GHOST/CXCR4 and PBMC cells in 24-well plate (5×10^5 cells/well) were pretreated with compounds (400 μL) for an hour at 37° C. and subsequently infected in triplicate with a panel of CCR5-tropic HIV-1 isolates (with the addition of 5 μL of HIV-1 stock to each well, total p24 content=1500 pg) for 3 h. Following infection, the cells were washed to remove residual viral inoculums and cultured in the presence of compounds (400 μL) for 3 or 7 days. Culture supernatants were harvested and viral replication was measured by determination of viral p24 antigen concentration by ELISA (HIV-1 p24 antigen Kit, Beckman Coulter). Compounds were tested in triplicate at 3 concentrations ranging from 0.5-50 μM. AZT was also examined as a reference standard.

[1] = test system: HIV-1 infected Hut/CCR5 cells; test: TUNEL assay, cytoprotective activity in HIV-1 infected Hut/CCR5 cells; assay type: cell-based; conditions: HIV-1 infected Hut/CCR5 cells, 0.5, 5 and 50 μM
From the text: The TUNEL reaction preferentially labels DNA strand breaks generated during apoptosis. This is done by labeling DNA strand breaks by terminal deoxynucleotidyl transferase (TdT), which catalyzes polymerization of labeled nucleotides to free 3′-OH DNA ends in a template-independent manner (TUNEL-reaction). The TUNEL method (In Situ Cell Death Detection Kit, Fluorescein, Roche) combined with flow cytometry was used for the measurement of apoptosis (Gorczyca et al. Cancer Res. (1993), 53, 1945). The quantitative analysis of 3′-OH ends was performed using the MDADS analysis program (Beckman Coulter).
HIV-1 infected Hut/CCR5 cells were treated with 2 (0.5, 5, and 50 μM) for 3 days. The cells were fixed (in 4% paraformaldehyde in PBS, pH 7.4) and permeabilisated (0.1% Triton X-100 in 0.1% sodium citrate), The cells were then rinsed twice with PBS and labeled with 50 μL TUNEL reaction mixture (50 μL Enzyme solution +450 μL Label solution) for 60 min. at 37° C. in a humidified atmosphere in dark. The samples were rinsed with PBS three times and resuspended in 1 mL PBS containing 5 μg/mL of PI and 0.1% RNAse. Flow cytometry was performed on a FACScan cytometry. The red (PI) and green (fluorescein) fluorescence emissions from each cell were measured.

HIV-1 RT = HIV-1 RT (Human immunodeficiency virus type 1 group M subtype B, UniProt P04585); conditions: percentage luminescence relative to untreated control
Procedure: The inhibitory effect of different compounds on HIV-1 RT activities were assayed using a commercial assay kit (Reverse Transcriptase Assay, Chemiluminescent, Roche). […] (30 min.). The ELISA assays were conducted by following the manufacturer's instructions (Eberle and Seibl J. Virol. Methods (1992), 40, 347). In general, the indicated components were added to the corresponding wells of the microtitre plate from the kit and incubated for 1 h at 37° C. The solution in each well was then completely removed and the wells were rinsed five times with 250 μL of washing buffer per well. During each washing step, the washing buffer was left in the wells for a minimum of 30 seconds. The microtitre plate modules were covered and dried with a blotting paper, followed by the incubation with anti-DIG-POD working dilution was added (200 μL per well) for 1 h at 37° C. The solution was discarded followed by the washing and drying steps as described above. The POD substrate was added (200 μL per well) and was incubated at room temperature for 15 min. The chemiluminescent signal was measured and quantified using a microtitre plate chemiluminescence reader. The HIV-1 RT activities were evaluated based on percentage luminescence of the solutions relative to the negative control (untreated population).

In the case of Na7[Ru4(μ3-O)4(C2O4)6] [Complex 2], the “inhibition of HIV-1(BaL) replication” value (HIV-1(BaL)) is reported as “inhibited”, the “inhibition of HIV-1 replication in GHOST/CXCR4 cells” value (HIV-1(IIIB)) is reported as “inhibited” and the “inhibition of HIV-1 replication in PBMC cells” value (HIV-1(IIIB)) is reported as “inhibited”. For the same substance, the “cytoprotective activity (TUNEL)” value [1] was “showed cytoprotective activity” and the “inhibition of HIV-1 RT activity” value (HIV-1 RT) was “inhibited”.
